What was measured:
[1] = biological target: T1, KSR (Mus musculus, UniProt Q61097); experiment: KSR autophosphorylation after treatment of COS-7 cells expressing KSR; format: cell-based, mouse (KSR expressed in COS-7 cells)
T1 sequence (Q61097 1-873): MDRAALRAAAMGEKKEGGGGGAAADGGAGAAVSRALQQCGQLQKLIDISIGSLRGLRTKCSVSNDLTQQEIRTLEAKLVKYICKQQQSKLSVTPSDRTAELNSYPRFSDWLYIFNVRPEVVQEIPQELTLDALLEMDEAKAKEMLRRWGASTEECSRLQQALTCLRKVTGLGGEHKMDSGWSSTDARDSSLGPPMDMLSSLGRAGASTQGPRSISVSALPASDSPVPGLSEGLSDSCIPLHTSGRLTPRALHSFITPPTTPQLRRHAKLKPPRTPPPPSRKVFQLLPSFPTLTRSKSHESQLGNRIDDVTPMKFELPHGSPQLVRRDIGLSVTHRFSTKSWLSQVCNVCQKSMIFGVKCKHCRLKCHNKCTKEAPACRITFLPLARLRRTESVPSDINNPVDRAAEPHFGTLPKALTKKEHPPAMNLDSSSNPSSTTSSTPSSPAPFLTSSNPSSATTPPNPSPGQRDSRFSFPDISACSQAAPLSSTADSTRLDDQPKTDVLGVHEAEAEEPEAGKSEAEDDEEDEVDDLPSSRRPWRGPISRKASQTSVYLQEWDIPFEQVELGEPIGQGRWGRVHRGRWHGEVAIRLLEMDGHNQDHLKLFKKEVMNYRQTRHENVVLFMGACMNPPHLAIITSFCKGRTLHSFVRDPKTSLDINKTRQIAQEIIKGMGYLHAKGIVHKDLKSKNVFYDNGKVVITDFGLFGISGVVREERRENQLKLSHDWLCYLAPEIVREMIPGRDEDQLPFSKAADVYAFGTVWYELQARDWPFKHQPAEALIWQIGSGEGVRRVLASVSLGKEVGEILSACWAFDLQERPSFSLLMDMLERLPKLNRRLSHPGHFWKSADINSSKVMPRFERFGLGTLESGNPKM
Description: FIG. 23A--COS-7 cells were transfected as in FIG. 22A and placed in serum-free medium. After 4 hours, cells were stimulated for 10 min with the ceramide analog, C2-ceramide (Biomol), at the concentrations indicated. Cells were lysed with NP-40 lysis buffer, and Flag-tagged KSR (0.8 mg protein for each point) was immunoprecipitated and assayed for autophosphorylation activity as described in Experimental Procedures. The autoradiogram was exposed for 1 hour. KSR is expressed at similar levels in each sample as monitored by Western blot (data not shown). Data represent one of three similar experiments.
(§1) COS-7 cells expressing Flag-tagged KSR were stimulated with 10 nM TNFα for the times indicated and lysed with NP-40 buffer as in FIG. 2A. […] The autoradiogram was exposed for 1 hour. Data represent one of three similar experiments.
KSR was immunoprecipitated as above from 0.8 mg NP-40 lysate protein with 40 μl agarose-conjugated anti-Flag antibody at 4° C. for 4 hrs or overnight. […] The reaction was stopped by addition of Laemmli sample buffer. Samples were resolved by 7.5% sodium dodecyl sulfate-polyacrylamide gel electrophoresis (SDS-PAGE) and autoradiographed.

[2] = biological target: T1, KSR; experiment: Phosphorylation and activation of recombinant Raf-1 by KSR immunoprecipitated from treated COS-7 cells; format: cell-based, mouse (KSR expressed in COS-7 cells); details: C2-ceramide 1 μM; TNFα 10 nM
Description: FIGS. 23B-23C--COS-7 cells expressing Flag-tagged KSR were stimulated with 1 μM C2-ceramide for 10 min and lysed with NP-40 buffer as in FIG. 23A. […] The autoradiogram was exposed for 1 hour. Data represent one of three experiments.
as §1
Immunoprecipitated KSR was incubated with reaction buffer A containing 0.5 mM ATP and a protein kinase inhibitor cocktail [20 μM PKC inhibitor peptide (UBI), 2 μM protein kinase A inhibitor peptide (UBI) and 20 μM R24571 (Sigma)] for 30 min at 22° C.

[3] = system: KSR/Raf-1 complex; experiment: Co-immunoprecipitation of KSR and Raf-1 from treated COS-7 cells; format: cell-based, mouse KSR (COS-7 cells)
Description: FIG. […] Cells were lysed with NP-40 buffer and subjected to 4 hr of immunoprecipitation with anti-Raf-1 antibody. Two controls, KSR and KSR with ceramide treatment, received protein A conjugated sepharose beads without anti-Raf-1 antibody. […] Data represent one of four similar experiments.
Cell lysates were subjected to immunoprecipitation with anti-Flag antibody. Immunoprecipitated samples were handled as in FIG. 24A except Western blot analysis was performed with anti-Raf-1 antibody. Data represent one of three similar experiments.
Anti-Raf-1 antibody conjugated beads were prepared by overnight incubation of 2 μl of anti-Raf-1 antibody (a kind gift of Dr. Debbie Morrison) with 5 mg of the protein A conjugated sepharose beads, followed by washing three times with NP-40 lysis buffer. […] Lysates (0.8 mg total protein) were then incubated for 4 hrs with anti-Raf-1 bound sepharose beads or anti-Flag conjugated agarose beads. The beads were washed vigorously 5 times, boiled in Laemmli sample buffer, and proteins were separated on 7.5% SDS-PAGE. After electrophoresis, the gel was transferred to PVDF membrane and probed with anti-Flag antibody or anti-Raf-1 antibody.

[4] = biological target: T1, KSR; experiment: KSR activity toward Raf-1 peptides in vitro; format: biochemical, mouse (KSR immunoprecipitated from COS-7 cells); design: Raf-1 peptides as substrate
Description: The wild type peptide contains eight potential phosphorylation sites (shown in bold). Substitution of alanines and glycines for serines and threonines generated one peptide (TTLP-peptide) containing only two potential phosphorylation sites (Thr^268,269) and another peptide (AALP-peptide) with no potential phosphorylation sites.
FIG. 28A--Flag-tagged KSR was immunoprecipitated from 0.2 mg COS-7 lysate, and assayed with TTLP- or AALP-peptides in the presence of 30 nM ceramide (Avanti) or diluent (DMSO). Background counts per minute (cpm) derived from samples incubated with the AALP-peptide which contains no phosphorylation sites were subtracted from all points. Background cpm always represented less than 25% of the untreated total.
FIG. 28B--Flag-tagged KSR immunoprecipitated from 0.2 mg COS-7 lysate was assayed with TTLP- or AALP-peptides in the presence of ceramide or diluent for 45 min as described in FIG. 7A.
FIG. 28C--Flag-tagged KSR was immunoprecipitated from 0.15 mg COS-7 lysate and assayed with TTLP- or AALP-peptides for 20 min in the presence of 30 nM of the indicated lipid second messengers as described in FIG. 28A (AA: arachidonic acid; LPA: lyso phosphatidic acid; PMA: phorbol 12-myristate 13-acetate; DAG: 1,2-diacylglycerol).
KSR-bound beads were incubated with reaction buffer B plus 10 mM MnCl2, 5 μM ATP and [γ-^32 P]ATP at 22° C. for the period of time indicated in the presence of 0.3 mM synthetic Raf-peptide or substrate peptides specific for other Ser/Thr protein kinases. […] (SEQ ID NO.3). Substitution of glycines and alanines for serines and threonines generated one peptide (termed TTLP-peptide) containing only two potential phosphorylation sites at Thr^268,269 (in bold), […] (SEQ ID NO. 24), and another peptide (termed AALP-peptide; SEQ ID No.6) with no potential phosphorylation sites, […] (SEQ ID No.25). The amino acid sequences of substrate peptides specific for other protein kinases (Joseph et al., 1993) are: […] (SEQ ID NO.26) (PKA); […] (SEQ ID NO.27) (S6 kinase); […] (SEQ ID NO.28)(CK II); […] (SEQ ID NO.29) (CaM kinase II); and […] (SEQ ID NO.30) (PKC). […] Substrate peptides for PKA and PKC were from Sigma (St. Louis, Mo.). The reaction was stopped by addition of a stop solution containing 0.5 M ATP in 90% formic acid. The beads were removed by centrifugation at 5000×g for 2 min and the supernatant was loaded on P81 Whatman filter paper. The filter was air dried and washed in 4 mM Na2 H2 P2 O7, 1 mM acetic acid for one hour. The filter was baked at 90° C. for 10 min and quantified by Cerenkov counting using a Beckman LS 5000TD scintillation counter. In some experiments, samples were separated by C18 reverse-phase chromatography on HPLC (Mathias et al., 1991) to verify the results of the filter assay. Virtually identical results were obtained with both methods.

[5] = system: CAP kinase; experiment: Phosphorylation of Raf-1 peptides by CAP kinase; format: biochemical, bovine (brain)

Compound	concentration of maximal effect ([1]; C2-ceramide)	lowest effective concentration (KSR activity) ([1]; C2-ceramide)	fold induction at 40 µM ([1]; COS-7, 10 min, 40 μM C2-ceramide, read-out: maximal enhancement of KSR autophosphorylating activity)	activity of immunoprecipitated KSR to phosphorylate and activate Raf-1 [2]	co-immunoprecipitation of KSR with Raf-1 ([3]; 50 μM C2-ceramide, anti-Raf-1 precipitation)	co-immunoprecipitation of Raf-1 with KSR ([3]; C2-ceramide, anti-Flag precipitation)	phosphorylation of peptide by KSR [4]	phosphorylation of Raf-1 peptide by CAP kinase [5]
CCCCCCCCCCCCC/C=C/[C@@H](O)[C@H](CO)NC(C)=O [C2-ceramide]	40 µM	50 nM	5 to 10	markedly enhanced	significantly enhanced	dramatically enhanced		
RQRSTSTPNVHMVSTTLPVDSRMIE [wild type Raf-peptide]							phosphorylated to the same extent	phosphorylated
